Experiments:
pH of DiNAC solution = type: physicochemical
Experimental: (§1) Pharmacologic Agents: Recombinant human tPA (Sigma-Aldrich, St. Louis, MO), recombinant human ADAMTS-13 (MyBiosource, San Diego, CA), abciximab (ReoPro was kindly provided by Dr. Kevin Maher at Emory/CHOA), NAC (Thermo Fisher Scientific, Waltham, MA), and DiNAC (Cayman Chemical, Ann Arbor, Ml) or control (PBS) treatments were perfused for an hour at a flow rate of 1 ml/min. Agent solutions were made by dissolution or dilution in PBS. The in vitro flow system setup and image acquisition are shown in FIG. 2, and the concentrations of each agent are detailed in Table 2.
To confirm the efficacy of DiNAC, the dose response was tested at increasing concentrations of 0.02, 0.2, 2, and 20 mM. The thrombus area reduction was dependent on the concentration of DiNAC (FIG. 4). […] Considering the practical use of the DiNAC as a thrombolytic in a clinical setting, the 20 mM DiNAC with sodium bicarbonate to a final pH=7. Neutralization of 20 mM DiNAC reduced the variance from 47% to 12% in surface area reduction (44±47% vs 59±12%, p=0.77, FIG. 4).

[1] = tested on: fibrin clots from recalcified platelet rich plasma (PRP); assay: Red clot lysis under stagnant conditions, PRP clots; type: cell-based, Porcine; settings: 48 h, DiNAC and NAC at 2 mM
Source text: (§2) Blood Collection: Porcine blood was collected at a local abattoir immediately following slaughter into 3.5 U/mL heparin (Thermo Fisher Scientific, Waltham, MA) or 3.2% sodium citrate (Sigma-Aldrich, St. Louis, MO). Whole blood was gently agitated using an Orbit LS shaker (Laboratory Supply Network, Atkinson, NH) until perfusion and used in experiments as soon as possible the same day as collection.
(§3) Red clot formation and lysis: Platelet rich plasma (PRP) was made by separating citrated whole blood via gravity over a 2 h period and collecting the supernatant. Separation via gravity was employed instead of centrifugation to avoid platelet damage and activation. Citrated whole blood or PRP was then recalcified with CaCl2 to a final [Ca^2+] of 10 mM (Griffin, M. T., Kim, D. & Ku, D. N. Shear-induced platelet aggregation: 3D-grayscale microfluidics for repeatable and localized occlusive thrombosis. Biomicrofluidics 13, 2019), and 200 μl was transferred into 500 μal centrifuge tubes and allowed to clot and retract for 30 min. The clot was then incubated with 100 μl of either agent or control solution. The treatment solution was exchanged by removing the top 100 μl and replacement with fresh solution at 3, 6, 12, 24, and 48 h of incubation. The weight of the tube was measured immediately post-clot formation and at each timepoint after removal of old solution and prior to the replacement with fresh solution.

[2] = tested on: platelet-rich thrombi from heparinized human whole blood; assay: Example 4: thrombolysis of human blood thrombi in 3 mm collagen-coated stenotic capillary tubes; type: cell-based; settings: human whole blood thrombus
Experimental: In this example, an in-vitro randomized trial was performed using heparinized human blood in collagen-coated glass capillary tubes with a designed stenosis, mimicking arterial disease. Heparinized human blood was then infused through 3 mm capillary tubes at a constant flow rate, during which near-occlusive thrombi were formed at the region of stenosis (FIG. 11). DiNAC was then infused at a constant flow rate through the capillary tubes in order to observe thrombolytic activity, using a combination of live pressure monitoring and microscopic image capture. All infusions were control-matched with a phosphate-buffered saline solution in lieu of DiNAC.

[3] = tested on: VWF- and platelet-rich white thrombi; assay: Lysis of platelet-rich white thrombi in collagen-coated stenotic capillary tube under arterial shear (perfusion of lytic agents); type: cell-based, Porcine
Experimental: Collagen Coating: The stenotic glass test sections (inner diameter=1.5 mm) described herein were made by the Chemistry and Biochemistry Glass Shop at Georgia Institute of Technology. The % stenosis by diameter reduction ranged from 60% to 80%. Fibrillar equine collagen (type I; Chrono-Log Corporation, Havertown, PA) was diluted 9:1 in NaCl (Sigma-Aldrich, St. Louis, MO) and incubated in the test section at the stenosis for 24 h in a warm, moist environment (Para, A., Bark, D., Lin, A. & Ku, D. Rapid platelet accumulation leading to thrombotic occlusion. Ann Biomed Eng 39, 1961-1971, 2011; Para, A. N. & Ku, D. N. A low-volume, single pass in-vitro system of high shear thrombosis in a stenosis. Thromb Res 131, 418-424, 2013).
as §2
Syringe Perfusion: Lightly heparinized whole blood was perfused through the stenotic test section using a syringe pump. The flow rate was set so that the initial wall shear rate in the stenosis was 3,500 s^−1. A pressure transducer was connected in-line upstream of the stenosis (FIG. 2A). A dissecting microscope with a camera (PCO-Tech Incorporated, Romulus, MI) was used to capture images in real-time during perfusion. Blood perfusion continued until the upstream pressure increased by 30 mmHg (equivalent to an arterial pressure head in vivo) as a result of platelet thrombus formation in the stenotic section. Perfusion with a syringe pump (constant flow rate over constant pressure head) ensured that the thrombi were never fully occlusive, allowing subsequent perfusion for the induction of lysis.
as §1
Real-time image capture (5 frames per second) of the stenosis continued throughout treatment perfusion.
Data Analysis: The thrombi surface area (which was colored green) was calculated using manual pixel counting in the open-source GNU Image Manipulation Program (GIMP, Version 2.10.8, 1995-2018). Surface area reduction was calculated by % pixel reduction versus the occlusion image. Analysis of variance (ANOVA) was used to test for statistical differences between groups, with the significance set at p<0.05.
In this example, a stenotic capillary tube model, which potentiates VWF- and platelet-rich white thrombi in an arterial setting on a collagen-coated stenosis was used (Para, A., Bark, D., Lin, A. & Ku, D. Rapid platelet accumulation leading to thrombotic occlusion. Ann Biomed Eng 39, 1961-1971, 2011; Ku, D. N. & Flannery, C. J. Development of a flow-through system to create occluding thrombus. Biorheology 44, 273-284, 2007; Para, A. N. & Ku, D. N. A low-volume, single pass in-vitro system of high shear thrombosis in a stenosis. Thromb Res 131, 418-424, 2013) to test lysis of 90% occlusive white thrombi (FIG. 2) and perfused low (2 mM) and high (20 mM) concentrations of NAC and DiNAC solutions. As illustrated in FIG. 2. DiNAC, but not NAC, achieved thrombolysis over 60 minutes of perfusion (FIG. 3A-3D). 2 mM and 20 mM DiNAC lysed most of the thrombi (>95%) within 14 min and 1.5 min, respectively (FIG. 3A-3B).

white clots = assay: Example 3: thrombolytic activity on white clots, procedures of Examples 1 and 2; type: cell-based, Porcine; settings: DiNAC: clot breakup over 10 minutes; comparators at 1 hour
Experimental: In this example, use of DiNAC and other agents as anti-thrombotic agents was tested. A white clot formation in the artery system was modeled by a collagen coated glass capillary tube (Ku DN, Flannery CJ. Development of a flow-through system to create occluding thrombus, Biorheology, 2007; 44(4)273-84). Porcine blood was perfused into the capillary tube using a constant pressure head or a constant flow rate (Para AN, Ku DN. A low-volume, single pass in vitro system of high shear thrombosis in a stenosis, Thrombosis Research, 2013, 131(5):418-24). After clot formation, a thrombolytic agent was perfused into the capillary tube. The detailed capillary tube experimental protocol is summarized below.
In this example, the thrombolytic activity of DiNAC and other lytic agents was tested, using the procedures described in Examples 1 and 2.

[4] = tested on: fibrin clots from recalcified citrated whole blood; assay: Red clot lysis under stagnant conditions, whole blood clots; type: cell-based, Porcine; settings: whole blood clot, 48 h; DiNAC and NAC at 2 mM
Source text: as §2, §3

FeCl-induced thrombi = settings: NAC treatment alone, in vivo mice model; cited from earlier work
[5] = tested on: FeCl3 injury-induced thrombus; set-up: dose or concentration left out as unconfirmed; settings: after a 60 min treatment; FeCl3 injury in vivo; ADAMTS-13; cited from earlier work

CC(=O)N[C@@H](CSSC[C@H](NC(C)=O)C(=O)O)C(=O)O [DiNAC, N,N′-diacetyl-cystine]
pH of solution (pH of DiNAC solution; 2 mM solution): 7 | pH of solution (pH of DiNAC solution; 20 mM solution): 2 | PRP clot lysis over 48 h [1]: no effect on red clots | time to complete lysis of the white clot ([2]; 20 mM perfusion): ≤ 10 min | thrombus area vs control ([3]; 0.02 mM, 60 min perfusion): not significantly different from the control | thrombus area reduction ([3]; 0.2 mM, 60 min perfusion): 46±15% | thrombus surface area reduction ([3]; 20 mM acidic solution (not neutralized), 60 min perfusion): 44±47% | thrombus surface area reduction ([3]; 20 mM neutralized with sodium bicarbonate to pH=7, 60 min perfusion): 59±12% | thrombolytic activity on white clots (white clots): highly effective at causing lysis of white clots | whole blood clot lysis over 48 h [4]: no effect on red clots

CC(=O)N[C@@H](CS)C(=O)O [NAC, N-acetylcysteine, reference compound]
PRP clot lysis over 48 h [1]: no effect on red clots | lysis on perfusion ([3]; 2 mM and 20 mM, 60 min perfusion): minimal lysis | thrombus surface area reduction ([3]; 2 mM, 60 min perfusion): < 20% | lysis after 60 min perfusion ([3]; 20 mM, 60 min): minimal lysis | thrombolytic activity on white clots (white clots): minimal effects with no perfusion at 1 hour | whole blood clot lysis over 48 h [4]: no effect on red clots | reperfusion (FeCl-induced thrombi): < 40%

B1: Abciximab: inhibits platelet thrombus formation by blocking the glycoprotein IIb/IIIa through an antibody (antibody, chains of the INN, looked up, V domains shown)
VH: EVQLQQSGTVLARPGASVKMSCEASGYTFTNYWMHWVKQRPGQGLEWIGAIYPGNSDTSYIQKFKGKAKLTAVTSTTSVYMELSSLTNEDSAVYYCTLYDGYYVFAYWGQGTLVTVSA
VL: EIVLTQSPVTLSVTPGDSVSLSCRASRDISNNLHWFQQTSHESPRLLIKYASQSMSGIPSRFSGSGSGTDFTLSINSVETEDFGMYFCQQTNSWPYTFGGGTKLEIK
modifications: Fab
reduction in thrombus area ([3]; […] (Table 2), 60 min perfusion): 22±11% | thrombolytic activity on white clots (white clots): minimal effects with no perfusion at 1 hour

B2: ADAMTS-13: recombinant human ADAMTS-13, a protease that cleaves VWF (protein, UniProt Q76LX8 75-1427, looked up)
A disintegrin and …: AAGGILHLELLVAVGPDVFQAHQEDTERYVLTNLNIGAELLRDPSLGAQFRVHLVKMVILTEPEGAPNITANLTSSLLSVCGWSQTINPEDDTDPGHADLVLYITRFDLELPDGNRQVRGVTQLGGACSPTWSCLITEDTGFDLGVTIAHEIGHSFGLEHDGAPGSGCGPSGHVMASDGAAPRAGLAWSPCSRRQLLSLLSAGRARCVWDPPRPQPGSAGHPPDAQPGLYYSANEQCRVAFGPKAVACTFAREHLDMCQALSCHTDPLDQSSCSRLLVPLLDGTECGVEKWCSKGRCRSLVELTPIAAVHGRWSSWGPRSPCSRSCGGGVVTRRRQCNNPRPAFGGRACVGADLQAEMCNTQACEKTQLEFMSQQCARTDGQPLRSSPGGASFYHWGAAVPHSQGDALCRHMCRAIGESFIMKRGDSFLDGTRCMPSGPREDGTLSLCVSGSCRTFGCDGRMDSQQVWDRCQVCGGDNSTCSPRKGSFTAGRAREYVTFLTVTPNLTSVYIANHRPLFTHLAVRIGGRYVVAGKMSISPNTTYPSLLEDGRVEYRVALTEDRLPRLEEIRIWGPLQEDADIQVYRRYGEEYGNLTRPDITFTYFQPKPRQAWVWAAVRGPCSVSCGAGLRWVNYSCLDQARKELVETVQCQGSQQPPAWPEACVLEPCPPYWAVGDFGPCSASCGGGLRERPVRCVEAQGSLLKTLPPARCRAGAQQPAVALETCNPQPCPARWEVSEPSSCTSAGGAGLALENETCVPGADGLEAPVTEGPGSVDEKLPAPEPCVGMSCPPGWGHLDATSAGEKAPSPWGSIRTGAQAAHVWTPAAGSCSVSCGRGLMELRFLCMDSALRVPVQEELCGLASKPGSRREVCQAVPCPARWQYKLAACSVSCGRGVVRRILYCARAHGEDDGEEILLDTQCQGLPRPEPQEACSLEPCPPRWKVMSLGPCSASCGLGTARRSVACVQLDQGQDVEVDEAACAALVRPEASVPCLIADCTYRWHVGTWMECSVSCGDGIQRRRDTCLGPQAQAPVPADFCQHLPKPVTVRGCWAGPCVGQGTPSLVPHEEAAAPGRTTATPAGASLEWSQARGLLFSPAPQPRRLLPGPQENSVQSSACGRQHLEPTGTIDMRGPGQADCAVAIGRPLGEVVTLRVLESSLNCSAGDMLLLWGRLTWRKMCRKLLDMTFSSKTNTLVVRQRCGRPGGGVLLRYGSQLAPETFYRECDMQLFGPWGEIVSPSLSPATSNAGGCRLFINVAPHARIAIHALATNMGAGTEGANASYILIRDTHSLRTTAFHGQQVLYWESESSQAEMEFSEGFLKAQASLRGQYWTLQSWVPEMQDPQSWKGKEGT
PRP clot lysis over 48 h [1]: no effect on red clots | effect on clots and flow ([2]; perfusion): did not alter the clots or restore flow | thrombus area reduction ([3]; 1 g/mL (Table 2), 60 min perfusion): 19±8% | thrombolytic activity on white clots (white clots): minimal effects with no perfusion at 1 hour | reduction of thrombus size [5]: 62.3% | whole blood clot lysis over 48 h [4]: no effect on red clots

From patent US20230372272A1, “USE OF CYSTINE AND DERIVATIVES THEREOF AS ANTI-THROMBOTIC AND THROMBOLYTIC AGENTS” (Georgia Tech Research Corporation, priority 2020, published 2023)
